Data as given in US20260272934A1 (The United States of America, as represented by the …, priority 2023, published 2026).

How the values were obtained:
5-HT5A = 5-HT5A (Homo sapiens, UniProt P47898); experiment: Off-target primary and secondary screen; format: binding; conditions: 10 mM sample
SERT = SERT (Homo sapiens, UniProt P31645); experiment: Off-target primary and secondary screen; format: binding; conditions: 10 mM sample
[1] = system: multiple myeloma-derived L363 cells; experiment: Colorimetric MTS cell viability assay; format: cell-based
Description: • *Data from Park, J. E., et al {Park, 2023 #3387}. **Data from Alverez C. N., et al {Alverez, 2020 #3186}. N. S., Not significant; N. D., Not determined. ^a IC50 values determined from at least three independent experiments except as noted in parentheses. b A colorimetric MTS cell viability assay carried out using multiple myeloma-derived L363 cells.

M3 = M3 (Homo sapiens, UniProt P20309); experiment: Off-target primary and secondary screen; format: binding; conditions: 10 mM sample
M3, sequence (P20309 whole entry): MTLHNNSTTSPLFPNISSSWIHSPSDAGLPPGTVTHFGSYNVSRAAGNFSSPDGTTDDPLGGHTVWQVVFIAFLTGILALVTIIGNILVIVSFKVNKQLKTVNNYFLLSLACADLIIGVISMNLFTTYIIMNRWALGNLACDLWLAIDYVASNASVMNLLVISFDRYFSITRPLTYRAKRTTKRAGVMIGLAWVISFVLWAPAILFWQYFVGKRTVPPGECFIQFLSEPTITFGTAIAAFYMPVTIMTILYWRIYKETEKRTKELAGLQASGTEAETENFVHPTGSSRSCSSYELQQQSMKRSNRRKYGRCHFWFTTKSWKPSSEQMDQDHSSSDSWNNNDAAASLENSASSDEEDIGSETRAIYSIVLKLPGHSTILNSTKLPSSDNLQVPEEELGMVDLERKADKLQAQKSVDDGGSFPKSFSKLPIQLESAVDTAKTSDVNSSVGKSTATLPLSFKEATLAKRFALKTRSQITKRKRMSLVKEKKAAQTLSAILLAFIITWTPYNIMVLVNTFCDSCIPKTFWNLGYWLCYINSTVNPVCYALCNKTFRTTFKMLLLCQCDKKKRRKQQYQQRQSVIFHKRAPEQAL

Alpha2B = Alpha2B (Homo sapiens, UniProt P18089); experiment: Off-target primary and secondary screen; format: binding; conditions: 10 mM sample
Alpha2B, sequence (P18089 whole entry): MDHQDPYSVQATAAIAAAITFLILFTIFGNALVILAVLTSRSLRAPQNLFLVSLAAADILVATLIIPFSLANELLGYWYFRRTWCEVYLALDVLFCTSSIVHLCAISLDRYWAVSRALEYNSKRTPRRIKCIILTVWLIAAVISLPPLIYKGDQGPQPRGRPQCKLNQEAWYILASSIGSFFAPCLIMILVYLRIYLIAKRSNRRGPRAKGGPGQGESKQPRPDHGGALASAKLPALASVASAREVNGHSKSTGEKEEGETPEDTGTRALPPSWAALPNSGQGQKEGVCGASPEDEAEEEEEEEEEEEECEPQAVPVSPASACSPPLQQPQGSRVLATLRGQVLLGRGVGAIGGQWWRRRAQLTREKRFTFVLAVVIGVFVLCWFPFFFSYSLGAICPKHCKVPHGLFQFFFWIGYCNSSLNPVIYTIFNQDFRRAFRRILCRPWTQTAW

H2 = H2 (Homo sapiens, UniProt P25021); experiment: Off-target primary and secondary screen; format: binding; conditions: 10 mM sample
H2, sequence (P25021 whole entry): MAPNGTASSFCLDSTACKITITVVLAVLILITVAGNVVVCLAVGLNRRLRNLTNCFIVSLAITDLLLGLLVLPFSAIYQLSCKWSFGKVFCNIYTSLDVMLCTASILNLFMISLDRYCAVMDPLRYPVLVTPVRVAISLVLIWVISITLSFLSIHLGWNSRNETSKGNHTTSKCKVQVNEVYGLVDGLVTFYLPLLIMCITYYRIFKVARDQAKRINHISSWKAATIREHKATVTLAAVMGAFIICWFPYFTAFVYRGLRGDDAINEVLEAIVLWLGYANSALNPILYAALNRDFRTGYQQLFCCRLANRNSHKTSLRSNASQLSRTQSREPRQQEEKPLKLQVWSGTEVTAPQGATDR

5-HT1B = 5-HT1B (Homo sapiens, UniProt P28222); experiment: Off-target primary and secondary screen; format: binding; conditions: 10 mM sample
5-HT1B, sequence (P28222 whole entry, species assumed): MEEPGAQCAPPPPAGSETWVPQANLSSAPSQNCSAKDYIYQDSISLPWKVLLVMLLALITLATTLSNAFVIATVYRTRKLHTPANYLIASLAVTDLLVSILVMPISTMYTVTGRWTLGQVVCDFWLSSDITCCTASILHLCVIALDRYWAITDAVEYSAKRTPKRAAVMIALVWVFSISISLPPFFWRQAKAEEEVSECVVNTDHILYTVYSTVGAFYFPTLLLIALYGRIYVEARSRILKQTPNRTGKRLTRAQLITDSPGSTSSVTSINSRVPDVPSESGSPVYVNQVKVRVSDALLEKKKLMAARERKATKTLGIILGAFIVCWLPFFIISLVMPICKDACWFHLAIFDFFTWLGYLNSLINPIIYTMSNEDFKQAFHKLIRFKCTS

GABAA = experiment: Off-target primary and secondary screen; format: binding; conditions: for Primary screen AVE (% inhib) ± SD: 10 mM sample
5-HT7A = 5-HT7A (Homo sapiens, UniProt P34969); experiment: Off-target primary and secondary screen; format: binding; conditions: 10 mM sample
5-HT7A, sequence (P34969 1-445 isoform P34969-2): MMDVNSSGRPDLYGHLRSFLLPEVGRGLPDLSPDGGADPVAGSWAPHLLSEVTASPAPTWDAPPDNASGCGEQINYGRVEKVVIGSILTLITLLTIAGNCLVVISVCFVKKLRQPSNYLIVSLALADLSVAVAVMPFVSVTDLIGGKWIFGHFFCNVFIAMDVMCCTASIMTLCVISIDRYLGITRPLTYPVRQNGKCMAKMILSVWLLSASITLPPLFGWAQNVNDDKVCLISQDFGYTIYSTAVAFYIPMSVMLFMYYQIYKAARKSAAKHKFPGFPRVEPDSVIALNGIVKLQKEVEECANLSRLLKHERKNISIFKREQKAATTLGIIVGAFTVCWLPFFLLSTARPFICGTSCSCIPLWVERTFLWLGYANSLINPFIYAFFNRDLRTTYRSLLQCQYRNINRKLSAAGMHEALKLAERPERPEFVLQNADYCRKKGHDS

Plk2 PBD = experiment: FP-based inhibition assay; format: binding; conditions: N.S. = Not significant
Description: (§1) In the following, PBD1-3 fluorescence polarization (FP) binding assays were carried out for determining the Plk1 specificity. FP assays were carried out essentially as described previously {Liu, 2011 #2790; Qian, 2014 #1416}. All samples were analyzed approximately 30 min after reaction in a 384-well format using the SpectraMax Paradigm multi-mode microplate detection platform (Molecular Devices). Data were analyzed after carrying out at least three independent experiments using GraphPad Prism software version 7.

Plk3 PBD = experiment: FP-based inhibition assay; format: binding; conditions: N.S. = Not significant
Description: as §1

D2 = D2 (Homo sapiens, UniProt P14416); experiment: Off-target primary and secondary screen; format: binding; conditions: 10 mM sample
D2, sequence (P14416 whole entry): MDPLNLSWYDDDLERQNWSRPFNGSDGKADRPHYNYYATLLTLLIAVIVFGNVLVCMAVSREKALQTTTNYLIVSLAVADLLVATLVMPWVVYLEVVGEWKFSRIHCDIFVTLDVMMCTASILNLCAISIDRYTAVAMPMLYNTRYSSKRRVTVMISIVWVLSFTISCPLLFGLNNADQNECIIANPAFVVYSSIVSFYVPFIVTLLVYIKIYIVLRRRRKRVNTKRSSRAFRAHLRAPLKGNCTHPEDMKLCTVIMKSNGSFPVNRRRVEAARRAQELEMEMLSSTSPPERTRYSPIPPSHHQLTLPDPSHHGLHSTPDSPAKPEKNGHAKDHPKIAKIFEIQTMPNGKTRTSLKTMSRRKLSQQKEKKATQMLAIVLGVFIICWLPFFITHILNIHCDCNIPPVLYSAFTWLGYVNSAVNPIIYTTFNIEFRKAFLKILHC

BZP Rat brain site = experiment: Off-target primary and secondary screen; format: binding; conditions: for Primary screen AVE (% inhib) ± SD: 10 mM sample
PBD1 = PBD1 (Homo sapiens, UniProt P53350); experiment: FP-based inhibition assay; format: binding; conditions: read-out: PBD1 IC50 ± SD
PBD1, sequence (P53350 371-594 limits assumed): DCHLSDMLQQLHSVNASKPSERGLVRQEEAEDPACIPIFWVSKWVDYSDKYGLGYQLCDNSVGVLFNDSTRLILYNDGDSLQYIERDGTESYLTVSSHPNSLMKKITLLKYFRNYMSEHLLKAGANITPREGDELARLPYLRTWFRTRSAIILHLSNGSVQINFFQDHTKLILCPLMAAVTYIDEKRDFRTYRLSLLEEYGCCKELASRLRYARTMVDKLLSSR
Description: In the following, PBD1-3 fluorescence polarization (FP) binding assays were carried out for determining the Plk1 specificity. […] All samples were analyzed approximately 30 min after reaction in a 384-well format using the SpectraMax Paradigm multi-mode microplate detection platform (Molecular Devices). Data were analyzed after carrying out at least three independent experiments using GraphPad Prism software version 7.

[2] = target: T1, full-length Plk1 / biotinylated PBIP1 phospho-T78 peptide interaction (Homo sapiens, UniProt P53350); experiment: ELISA-based PBD1-binding inhibition assay; conditions: at least three independent experiments; read-out: ELISA (IC50) Mean ± SEM
T1 construct: HA; EGFP; expressed in transfected cells; host or cells: HEK293A cells infected with adenovirus; total lysates
T1 sequence (P53350 whole entry): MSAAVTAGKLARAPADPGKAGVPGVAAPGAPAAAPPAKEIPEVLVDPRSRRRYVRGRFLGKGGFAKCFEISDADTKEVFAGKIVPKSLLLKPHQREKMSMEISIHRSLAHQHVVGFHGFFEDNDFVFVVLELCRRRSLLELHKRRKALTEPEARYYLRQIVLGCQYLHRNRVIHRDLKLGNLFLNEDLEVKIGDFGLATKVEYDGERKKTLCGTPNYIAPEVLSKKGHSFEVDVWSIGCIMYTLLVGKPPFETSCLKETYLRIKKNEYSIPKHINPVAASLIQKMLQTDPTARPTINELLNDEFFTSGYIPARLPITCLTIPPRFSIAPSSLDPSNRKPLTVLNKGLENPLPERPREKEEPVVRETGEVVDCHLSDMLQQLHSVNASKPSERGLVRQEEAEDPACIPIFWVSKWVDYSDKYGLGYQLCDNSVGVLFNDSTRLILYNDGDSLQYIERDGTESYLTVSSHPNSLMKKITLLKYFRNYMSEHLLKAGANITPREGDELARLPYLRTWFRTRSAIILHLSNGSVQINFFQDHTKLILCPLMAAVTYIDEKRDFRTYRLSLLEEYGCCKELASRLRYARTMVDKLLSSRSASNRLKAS

D1 = D1 (Homo sapiens, UniProt P21728); experiment: Off-target primary and secondary screen; format: binding; conditions: 10 mM sample
D1, sequence (P21728 whole entry): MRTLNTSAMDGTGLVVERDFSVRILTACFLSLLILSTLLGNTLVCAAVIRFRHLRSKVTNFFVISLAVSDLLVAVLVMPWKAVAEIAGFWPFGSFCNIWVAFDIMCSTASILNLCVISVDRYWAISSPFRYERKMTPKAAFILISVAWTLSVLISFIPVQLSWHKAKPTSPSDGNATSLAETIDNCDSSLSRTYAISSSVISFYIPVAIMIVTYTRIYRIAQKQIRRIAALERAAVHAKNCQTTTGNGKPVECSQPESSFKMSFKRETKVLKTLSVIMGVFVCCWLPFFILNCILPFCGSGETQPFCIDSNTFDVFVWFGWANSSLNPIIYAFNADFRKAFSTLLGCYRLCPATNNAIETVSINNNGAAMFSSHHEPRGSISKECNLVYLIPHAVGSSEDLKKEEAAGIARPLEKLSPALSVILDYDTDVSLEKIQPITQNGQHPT

DAT = DAT (Homo sapiens, UniProt Q01959); experiment: Off-target primary and secondary screen; format: binding; conditions: 10 mM sample
5-HT2C = target: T2, 5-HT2C (Homo sapiens, UniProt P28335); experiment: Off-target primary and secondary screen; format: binding; conditions: for Primary screen AVE (% inhib) ± SD: 10 mM sample
T2 sequence (P28335 33-458): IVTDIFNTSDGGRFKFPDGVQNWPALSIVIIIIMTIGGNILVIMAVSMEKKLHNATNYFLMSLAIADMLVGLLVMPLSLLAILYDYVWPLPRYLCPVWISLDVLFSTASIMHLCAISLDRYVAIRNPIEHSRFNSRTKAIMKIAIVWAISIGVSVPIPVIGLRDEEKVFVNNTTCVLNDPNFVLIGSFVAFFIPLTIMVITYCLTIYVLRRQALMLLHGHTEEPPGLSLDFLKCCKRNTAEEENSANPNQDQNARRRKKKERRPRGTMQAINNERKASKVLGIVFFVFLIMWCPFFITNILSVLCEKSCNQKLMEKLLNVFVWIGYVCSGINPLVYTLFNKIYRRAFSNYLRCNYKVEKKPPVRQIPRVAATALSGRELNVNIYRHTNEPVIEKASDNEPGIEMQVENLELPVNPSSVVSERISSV

Alpha1B = Alpha1B (Homo sapiens, UniProt P35368); experiment: Off-target primary and secondary screen; format: binding; conditions: 10 mM sample
Alpha1B, sequence (P35368 whole entry): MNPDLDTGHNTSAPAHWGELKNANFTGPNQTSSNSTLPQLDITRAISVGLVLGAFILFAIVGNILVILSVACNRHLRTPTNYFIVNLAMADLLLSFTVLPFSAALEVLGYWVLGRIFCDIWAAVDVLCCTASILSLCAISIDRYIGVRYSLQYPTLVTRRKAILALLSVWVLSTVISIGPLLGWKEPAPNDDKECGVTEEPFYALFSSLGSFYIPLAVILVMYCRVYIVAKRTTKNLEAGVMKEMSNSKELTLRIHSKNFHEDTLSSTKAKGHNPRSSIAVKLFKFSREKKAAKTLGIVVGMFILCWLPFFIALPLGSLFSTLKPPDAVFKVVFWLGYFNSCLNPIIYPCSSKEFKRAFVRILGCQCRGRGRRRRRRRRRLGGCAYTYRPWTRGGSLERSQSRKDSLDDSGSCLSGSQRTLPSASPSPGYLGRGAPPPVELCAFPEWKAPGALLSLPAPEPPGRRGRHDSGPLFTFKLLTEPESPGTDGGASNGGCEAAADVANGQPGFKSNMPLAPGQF

[3] = target: T3, PBD1 WT or mutants (F559) (Homo sapiens, UniProt P53350, F559D); experiment: FP-based inhibition and U2OS imaging with PBD1/Plk1 WT or F559 mutants; format: binding; conditions: in vitro and in vivo; U2OS cells 8 μM
T3 construct: the indicated PBD1 WT or mutants in the presence of various concentrations of Allopole
T3 sequence (P53350 whole entry F559D): as the sequence (P53350 whole entry) above, with F559D counted along it
Description: Bars, mean #s.d. FIG. 7(b) depicts the results of FP-based inhibition assays for the interaction between FITC-Ahx-DPPLHS-pT-AI-NH2 and the indicated PBD1 WT or mutants in the presence of various concentrations of Allopole. Bars, mean±s.d. FIG. 7(c) depicts confocal imaging and quantification of Plk1 endogenous promoter (Pendo)-fused mGFP-Plk1 signals in U2OS cells silenced for endogenous Plk1 (siPlk1) and treated with 8 μM of Allopole for the indicated length of time (Experimental procedure at bottom, right). Arrowheads, centrosomes. Quantification of Pendo-mGFP-Plk1 signals was performed with the images acquired from three independent experiments [n=a total of 93, 53, and 79 cells for Plk1 WT samples (in order) and n=a total of 92, 64, and 76 cells for the F559D mutant samples (in order)]. Bars, mean±s.d. Arrowheads, centrosomes. ****, P<0.0001 (unpaired two-tailed t-test).

Hela cells = experiment: Immunoprecipitation, confocal imaging and time-lapse analyses in Hela cells; format: cell-based
Description: FIG. 5 illustrates the inhibition by Allopole of PBD1-dependent interactions and subcellular localizations leading to mitotic block in Hela cells. FIG. 5a depicts the immunoprecipitation and immunoblotting analyses.

5-HT5A, sequence (P47898 whole entry, species assumed): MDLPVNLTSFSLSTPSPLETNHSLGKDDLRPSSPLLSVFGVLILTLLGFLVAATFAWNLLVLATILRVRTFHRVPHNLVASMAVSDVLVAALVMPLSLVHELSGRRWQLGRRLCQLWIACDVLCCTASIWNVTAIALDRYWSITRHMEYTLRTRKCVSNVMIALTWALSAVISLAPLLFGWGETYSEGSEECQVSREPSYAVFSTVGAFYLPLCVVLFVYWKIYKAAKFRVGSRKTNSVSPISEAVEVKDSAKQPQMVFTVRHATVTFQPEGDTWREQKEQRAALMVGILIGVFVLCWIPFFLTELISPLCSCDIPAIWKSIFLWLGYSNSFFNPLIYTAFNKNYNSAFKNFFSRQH

Row | Compound | Primary screen AVE (% inhib) ± SD (5-HT5A) [% inhib] | Primary screen AVE (% inhib) ± SD (SERT) [% inhib] | Primary screen AVE (% inhib) ± SD (M3) [% inhib] | Primary screen AVE (% inhib) ± SD (Alpha2B) [% inhib] | Primary screen AVE (% inhib) ± SD (H2) [% inhib] | Primary screen AVE (% inhib) ± SD (5-HT1B) [% inhib] | Ki (GABAA) [µM] | Primary screen AVE (% inhib) ± SD (GABAA) [% inhib] | Primary screen AVE (% inhib) ± SD (5-HT7A) [% inhib] | Primary screen AVE (% inhib) ± SD (D2) [% inhib] | Ki (BZP Rat brain site) [µM] | Primary screen AVE (% inhib) ± SD (BZP Rat brain site) [% inhib] | IC50 [2] [nM] | Primary screen AVE (% inhib) ± SD (D1) [% inhib] | Primary screen AVE (% inhib) ± SD (DAT) [% inhib] | Primary screen AVE (% inhib) ± SD (5-HT2C) [% inhib] | Primary screen AVE (% inhib) ± SD (Alpha1B) [% inhib] | other results
1 | O=c1c2sc(Cl)cc2n2c(=S)[nH]nc2n1CC1CC1 [Compound 19, 7-Chloro-4-(cyclopropylmethyl)-1-thioxo-2,4-dihydrothieno[2,3-e][1,2,4]triazolo[4,3-a]pyrimidin-5 (1H)-one] | -1.4 ± 14.4 | -28.9 ± 28.7 | 7.5 ± 45.6 | -6.4 ± 7.1 | -27.4 ± 17.1 | 17.7 ± 42.2 | > 10 | 35.7 ± 11.1 | -88.1 ± 20.8 | -27.4 ± 13.1 | > 10 | 2.3 ± 21.8 | 1400 ± 30 | -17.2 ± 25.0 | 43.9 ± 13.0 | -18.3 ± 22.0 | -7.7 ± 9.7 | Cell efficacy (GI50) Mean ± SD ([1]; N.S. = Not significant): N.S.; Plk2 PBD IC50 ± SD (Plk2 PBD): N.S.; Plk3 PBD IC50 ± SD (Plk3 PBD): N.S.; IC50 (PBD1): 2.53 ± 0.18 nM
2 | Cn1cnc([N+](=O)[O-])c1Sc1nnc2n(CC3CC3)c(=O)c3sc(Cl)cc3n12 [Compound 20, 7-Chloro-4-(cyclopropylmethyl)-1-((1-methyl-4-nitro-1H-imidazol-5-yl)thio) thieno[2,3-e][1,2,4]triazolo[4,3-a]pyrimidin-5 (4H)-one] | 24.5 ± 9.3 | -56.0 ± 13.9 | 48.3 ± 21.9 | 8.3 ± 16.4 | -16.4 ± 21.5 | 60.8 ± 40.9 | > 10 | 33.3 ± 4.2 | 14.9 ± 9.9 | 3.6 ± 6.6 | > 10 | 9.5 ± 7.6 | > 25000 | 21.5 ± 6.8 | 54.0 ± 10.7 | 59.5 ± 3.0 | -1.6 ± 9.5 | sensitivity of Plk1 with F559 mutated to a charged residue to treatment [3]: insensitive; GI50 ([1]; Homo sapiens, L-363, N.S. = Not significant, read-out: Cell efficacy (GI50) Mean ± SD): 4.09 ± 0.14 µM; Ki (5-HT2C): 1300 nM; effect of inhibition of PBD1-dependent interactions and subcellular localizations (Hela cells): mitotic block
